In patent publication US6638973B2, “Taxane formulations” (FSU Research Foundation, Inc., priority 2000, dated 2003):
Where two headings read alike, the source gives them in different places.

System: HCT116 cells
Test: In vitro cytotoxicity measured by the cell colony formation assay
Format: cell-based
Conditions: colonies counted after 7 days, read-out: IN VITRO ID 50 (nm) HCT116
Method: (§1) Four hundred cells (HCT116) were plated in 60 mm Petri dishes containing 2.7 mL of medium (modified McCoy's 5a medium containing 10% fetal bovine serum and 100 units/mL penicillin and 100 µg/mL streptomycin). The cells were incubated in a CO2 incubator at 37° C. for 5 h for attachment to the bottom of Petri dishes. The compounds identified in Example 2 were made up fresh in medium at ten times the final concentration, and then 0.3 mL of this stock solution was added to the 2.7 mL of medium in the dish. The cells were then incubated with drugs for 72 h at 37° C. At the end of incubation the drug-containing media were decanted, the dishes were rinsed with 4 mL of Hank's Balance Salt Solution (HBSS), 5 mL of fresh medium was added, and the dishes were returned to the incubator for colony formation. The cell colonies were counted using a colony counter after incubation for 7 days.
as §1, with “Example 7” for “Example 2”
as §1, with “Example 22” for “Example 2”
as §1, with “Example 27” for “Example 2”
Four hundred cells (HCT116) were plated in 60 mm Petri dishes containing 2.7 mL of medium (modified McCoy's 5a medium containing 10% fetal bovine serum and 100 units/mL penicillin and 100 µg/mL streptomycin). The cells were incubated in a CO2 incubator at 37° C. for 5 h for attachment to the bottom of Petri dishes. […]

[1] = HCT116 colony formation, 72 h drug incubation, Example 10, C-10 ester/C-7 hydroxy taxanes
[2] = HCT116 cells, colony formation, 72 h incubation with drug, ID50 = drug concentration producing 50% inhibition of colony formation
[3] = HCT116 cells, 72 h incubation with drug, ID50 = drug concentration producing 50% inhibition of colony formation
[4] = HCT116 colony formation, 72 h drug incubation, Example 5, C-7 ester/C-10 hydroxy taxanes

| Compound | IC50 [1] [nM] | also measured |
| --- | --- | --- |
| CCCC(=O)O[C@H]1C(=O)[C@@]2(C)C([C@H](OC(=O)c3ccccc3)[C@]3(O)C[C@H](OC(=O)[C@H](O)[C@@H](NC(=O)OC(C)(C)C)c4ccncc4)C(C)=C1C3(C)C)[C@]1(OC(C)=O)CO[C@@H]1C[C@@H]2O (stereo partly drawn) [Compound 0978] | < 1 | – |
| CCNC(=O)O[C@H]1C(=O)[C@@]2(C)C([C@H](OC(=O)c3ccccc3)[C@]3(O)C[C@H](OC(=O)[C@H](O)[C@@H](NC(=O)OC(C)(C)C)C(C)C)C(C)=C1C3(C)C)[C@]1(OC(C)=O)CO[C@@H]1C[C@@H]2O (stereo partly drawn) [Compound 2633] | – | IC50 [2]: < 10 nM |
| COC(=O)O[C@H]1C[C@H]2OC[C@@]2(OC(C)=O)C2[C@H](OC(=O)c3ccccc3)[C@]3(O)C[C@H](OC(=O)[C@H](O)[C@@H](NC(=O)c4ccccc4)c4cccs4)C(C)=C([C@@H](O)C(=O)[C@@]21C)C3(C)C (stereo partly drawn) [Compound 4411] | – | IC50 [3]: < 1 nM |
| CC(=O)O[C@@]12CO[C@@H]1C[C@H](O)[C@@]1(C)C(=O)[C@H](OC(=O)C3CC3)C3=C(C)[C@@H](OC(=O)[C@H](O)[C@@H](NC(=O)c4cccs4)c4ccco4)C[C@@](O)([C@@H](OC(=O)c4ccccc4)C12)C3(C)C (stereo partly drawn) [Compound 3663] | < 1 | – |
| CCCC(=O)N[C@@H](c1ccco1)[C@@H](O)C(=O)O[C@H]1C[C@@]2(O)[C@@H](OC(=O)c3ccccc3)C3[C@](C)(C(=O)[C@H](O)C(=C1C)C2(C)C)[C@@H](OC(=O)CC)C[C@H]1OC[C@@]31OC(C)=O (stereo partly drawn) [Compound 3171] | – | IC50 [4]: < 1 nM |
| CC(=O)OC12COC1CC(O)C1(C)C(=O)C(OC(=O)c3ccco3)C3=C(C)C(OC(=O)C(O)C(NC(=O)OC(C)(C)C)c4ccccc4)CC(O)(C(OC(=O)c4ccccc4)C21)C3(C)C (stereo not drawn) [Compound 2212] | < 10 | – |
| CC(=O)OC12COC1CC(O)C1(C)C(=O)C(OC(=O)c3ccco3)C3=C(C)C(OC(=O)C(O)C(NC(=O)OC(C)(C)C)c4ccccn4)CC(O)(C(OC(=O)c4ccccc4)C21)C3(C)C (stereo not drawn) [Compound 2111] | < 1 | – |
| CC(=O)O[C@@]12CO[C@@H]1C[C@H](O)[C@@]1(C)C(=O)[C@H](OC(=O)C(C)C)C3=C(C)[C@@H](OC(=O)[C@H](O)[C@@H](NC(=O)OC(C)(C)C)c4ccsc4)C[C@@](O)([C@@H](OC(=O)c4ccccc4)C12)C3(C)C (stereo partly drawn) [Compound 2291] | < 1 | – |
| CCCC(=O)O[C@H]1C(=O)[C@@]2(C)C([C@H](OC(=O)c3ccccc3)[C@]3(O)C[C@H](OC(=O)[C@H](O)[C@@H](NC(=O)OCC(C)C)c4cccs4)C(C)=C1C3(C)C)[C@]1(OC(C)=O)CO[C@@H]1C[C@@H]2O (stereo partly drawn) [Compound 3265] | < 10 | – |
| CCOC(=O)O[C@H]1C(=O)[C@@]2(C)C([C@H](OC(=O)c3ccccc3)[C@]3(O)C[C@H](OC(=O)[C@H](O)[C@@H](NC(=O)OC(C)(C)C)c4ccccc4)C(C)=C1C3(C)C)[C@]1(OC(C)=O)CO[C@@H]1C[C@@H]2O (stereo partly drawn) [Compound 1771] | – | IC50 [3]: < 10 nM |
| CCCC(=O)O[C@H]1C[C@H]2OC[C@@]2(OC(C)=O)C2[C@H](OC(=O)c3ccccc3)[C@]3(O)C[C@H](OC(=O)[C@H](O)[C@@H](NC(=O)C=C(C)C)c4cccs4)C(C)=C([C@@H](O)C(=O)[C@@]21C)C3(C)C (stereo partly drawn) [Compound 4283] | – | IC50 [4]: < 1 nM |
| CC=CC(=O)NC(c1ccco1)C(O)C(=O)OC1CC2(O)C(OC(=O)c3ccccc3)C3C4(OC(C)=O)COC4CC(OC(=O)Nc4ccc(F)c(F)c4)C3(C)C(=O)C(O)C(=C1C)C2(C)C (stereo not drawn) [Compound 5800] | – | IC50 (HCT116 cells, 72 h drug incubation, ID50 = drug concentration producing 50% inhibition of colony formation): < 10 nM |
| COC(=O)O[C@H]1C(=O)[C@@]2(C)C([C@H](OC(=O)c3ccccc3)[C@]3(O)C[C@H](OC(=O)[C@H](O)[C@@H](NC(=O)OC(C)(C)C)c4ccccn4)C(C)=C1C3(C)C)[C@]1(OC(C)=O)CO[C@@H]1C[C@@H]2O (stereo partly drawn) [Compound 2002] | – | IC50 [3]: < 1 nM |
| CCC(=O)O[C@H]1C[C@H]2OC[C@@]2(OC(C)=O)C2[C@H](OC(=O)c3ccccc3)[C@]3(O)C[C@H](OC(=O)[C@H](O)[C@@H](NC(=O)OC(C)(C)C)c4ccoc4)C(C)=C([C@@H](O)C(=O)[C@@]21C)C3(C)C (stereo partly drawn) [Compound 1401] | – | IC50 [4]: < 1 nM |
| CCC(=O)O[C@H]1C[C@H]2OC[C@@]2(OC(C)=O)C2[C@H](OC(=O)c3ccccc3)[C@]3(O)C[C@H](OC(=O)[C@H](O)[C@@H](NC(=O)OCC(C)C)c4cccs4)C(C)=C([C@@H](O)C(=O)[C@@]21C)C3(C)C (stereo partly drawn) [Compound 3232] | – | IC50 [4]: < 1 nM |
| C/C=C/C(=O)O[C@H]1C(=O)[C@@]2(C)C([C@H](OC(=O)c3ccccc3)[C@]3(O)C[C@H](OC(=O)[C@H](O)[C@@H](NC(=O)OC(C)(C)C)c4cccnc4)C(C)=C1C3(C)C)[C@]1(OC(C)=O)CO[C@@H]1C[C@@H]2O (stereo partly drawn) [Compound 2353] | < 10 | – |
| COCC(=O)O[C@H]1C[C@H]2OC[C@@]2(OC(C)=O)C2[C@H](OC(=O)c3ccccc3)[C@]3(O)C[C@H](OC(=O)[C@H](O)[C@@H](NC(=O)OC(C)(C)C)c4ccco4)C(C)=C([C@@H](O)C(=O)[C@@]21C)C3(C)C (stereo partly drawn) [Compound 5445] | – | IC50 (HCT116 colony formation, 72 h drug incubation, Example 15, C-7 substituted acetate/C-10 hydroxy taxanes): < 1 nM |
| C/C=C/C(=O)N[C@@H](c1ccco1)[C@@H](O)C(=O)O[C@H]1C[C@@]2(O)[C@@H](OC(=O)c3ccccc3)C3[C@](C)(C(=O)[C@H](OC(=O)Nc4ccccc4)C(=C1C)C2(C)C)[C@@H](O)C[C@H]1OC[C@@]31OC(C)=O (stereo partly drawn) [Compound 6024] | – | IC50 [2]: < 1 nM |
| CCC(=O)O[C@H]1C(=O)[C@@]2(C)C([C@H](OC(=O)c3ccccc3)[C@]3(O)C[C@H](OC(=O)[C@H](O)[C@@H](NC(=O)OC(C)(C)C)c4ccco4)C(C)=C1C3(C)C)[C@]1(OC(C)=O)CO[C@@H]1C[C@@H]2O (stereo partly drawn) [Compound 0536] | < 1 | – |
| CC(=O)OC12COC1CC(O)C1(C)C(=O)C(OC(=O)c3ccco3)C3=C(C)C(OC(=O)C(O)C(NC(=O)OC(C)(C)C)c4ccc([N+](=O)[O-])cc4)CC(O)(C(OC(=O)c4ccccc4)C21)C3(C)C (stereo not drawn) [Compound 2202] | < 1 | – |
| CC(=O)O[C@@]12CO[C@@H]1C[C@H](O)[C@@]1(C)C(=O)[C@H](OC(=O)C=C(C)C)C3=C(C)[C@@H](OC(=O)[C@H](O)[C@@H](NC(=O)OC(C)(C)C)c4cccs4)C[C@@](O)([C@@H](OC(=O)c4ccccc4)C12)C3(C)C (stereo partly drawn) [Compound 2503] | < 1 | – |
| C/C=C/C(=O)N[C@@H](c1ccco1)[C@@H](O)C(=O)O[C@H]1C[C@@]2(O)[C@@H](OC(=O)c3ccccc3)C3[C@](C)(C(=O)[C@H](OC(=O)COC)C(=C1C)C2(C)C)[C@@H](O)C[C@H]1OC[C@@]31OC(C)=O (stereo partly drawn) [Compound 6066] | – | IC50 (HCT116 colony formation, 72 h drug incubation, Example 20, C-10 substituted acetate/C-7 hydroxy taxanes): < 1 nM |
| C/C=C/C(=O)N[C@@H](c1cccs1)[C@@H](O)C(=O)O[C@H]1C[C@@]2(O)[C@@H](OC(=O)c3ccccc3)C3[C@](C)(C(=O)[C@H](OC(=O)C4CC4)C(=C1C)C2(C)C)[C@@H](O)C[C@H]1OC[C@@]31OC(C)=O (stereo partly drawn) [Compound 3513] | < 1 | – |
| CC(=O)O[C@@]12CO[C@@H]1C[C@H](O)[C@@]1(C)C(=O)[C@H](OC(=O)C3CC3)C3=C(C)[C@@H](OC(=O)[C@H](O)[C@@H](NC(=O)c4ccccc4)c4ccoc4)C[C@@](O)([C@@H](OC(=O)c4ccccc4)C12)C3(C)C (stereo partly drawn) [Compound 2826] | < 1 | – |
